pEC50, pIC50: −log10 of the molar value.
Assays:
[1] = molecular target: T1, HDAC6 (Homo sapiens, UniProt Q9UBN7); experiment: Tubulin acetylation cytoblot assay (A549 cells); type: cell-based; conditions: 17-18 h incubation, tubulin acetylation as marker of HDAC6 inhibition, read-out: Tub-Ac EC50
T1 construct: endogenous in cells; host or cells: A549 cells
T1 sequence (Q9UBN7 1-1215): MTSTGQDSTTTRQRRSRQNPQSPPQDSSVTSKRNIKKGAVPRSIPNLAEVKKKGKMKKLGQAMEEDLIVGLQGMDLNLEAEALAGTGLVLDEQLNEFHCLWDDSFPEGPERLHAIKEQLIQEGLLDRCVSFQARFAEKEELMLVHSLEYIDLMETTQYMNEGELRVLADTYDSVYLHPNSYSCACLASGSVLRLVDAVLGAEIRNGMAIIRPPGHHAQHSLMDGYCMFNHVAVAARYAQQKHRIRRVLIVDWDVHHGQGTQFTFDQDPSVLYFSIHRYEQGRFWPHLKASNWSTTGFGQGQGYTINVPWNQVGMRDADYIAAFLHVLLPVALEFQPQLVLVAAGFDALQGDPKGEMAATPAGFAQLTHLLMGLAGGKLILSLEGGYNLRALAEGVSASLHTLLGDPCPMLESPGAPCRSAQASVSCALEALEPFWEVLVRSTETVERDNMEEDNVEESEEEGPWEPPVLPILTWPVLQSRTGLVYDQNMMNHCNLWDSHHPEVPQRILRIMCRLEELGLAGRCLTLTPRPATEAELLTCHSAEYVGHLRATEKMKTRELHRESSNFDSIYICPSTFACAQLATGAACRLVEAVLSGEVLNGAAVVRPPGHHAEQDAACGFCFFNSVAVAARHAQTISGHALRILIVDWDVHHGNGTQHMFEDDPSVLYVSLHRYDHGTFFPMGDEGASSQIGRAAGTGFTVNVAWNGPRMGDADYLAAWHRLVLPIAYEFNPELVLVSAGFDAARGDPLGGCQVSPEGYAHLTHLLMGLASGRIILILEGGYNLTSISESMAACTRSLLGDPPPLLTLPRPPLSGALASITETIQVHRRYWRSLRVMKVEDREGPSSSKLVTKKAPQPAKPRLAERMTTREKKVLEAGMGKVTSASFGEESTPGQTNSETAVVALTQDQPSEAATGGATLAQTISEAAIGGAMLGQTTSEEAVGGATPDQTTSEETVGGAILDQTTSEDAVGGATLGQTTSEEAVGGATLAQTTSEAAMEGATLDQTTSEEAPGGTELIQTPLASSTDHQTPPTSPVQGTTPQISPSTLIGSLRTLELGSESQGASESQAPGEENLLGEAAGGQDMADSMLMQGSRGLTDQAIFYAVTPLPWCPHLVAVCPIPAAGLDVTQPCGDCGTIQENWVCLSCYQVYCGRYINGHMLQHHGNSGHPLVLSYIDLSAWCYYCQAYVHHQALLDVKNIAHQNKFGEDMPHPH
How it was run: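 Cells were exposed to compound for 17-18 h, then fixed with formaldehyde and permeabilized with cold MeOH. They were probed for 4 h at 4° C with anti-acetylated tubulin plus HRP anti-mouse IgG (each 1:750), and read by ECL luminescence. EC50 values came from curves normalized to top and bottom controls.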

[2] = test system: OPM-2; experiment: WST anti-proliferative assay, multiple myeloma cell line OPM-2; type: cell-based; conditions: Homo sapiens; OPM-2 cells, 72 hours, CCK-8
Description: (§1) WST Anti-Proliferative Assay and Assessment of Growth Inhibitory of Novel Compounds in Multiple Myeloma Cell Lines.

[3] = test system: p21 promoter-luciferase construct; experiment: p21 reporter gene induction (HeLa cells, p21 promoter-luciferase construct); conditions: for p21 RP3: relative gene level of p21 compared to MS275 at 3 μM; for p21 RP10: relative level of p21 compared to MS275 at 10 μM; for p21 RP30: relative level of p21 compared to MS275 at 30 μM;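 as to all read-outs here: transfected HeLa cells exposed to compound for 15 h, luciferase luminescence read from lysates, p21 promoter lacks p53 site, proxy for cellular HDAC1/2/3 inhibition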
[4] = molecular target: T2, recombinant human HDAC8 (Homo sapiens, UniProt Q9BY41); experiment: HDAC8 inhibition: recombinant HDAC8 fluorometric assay; type: biochemical; conditions: recombinant human HDAC8, substrate Ac-Arg-His-Lys-Lys(ε-acetyl)-AMC; read-out: HDAC8 IC50
T2 construct: made in house; host or cells: insect cells
T2 sequence (Q9BY41 1-377): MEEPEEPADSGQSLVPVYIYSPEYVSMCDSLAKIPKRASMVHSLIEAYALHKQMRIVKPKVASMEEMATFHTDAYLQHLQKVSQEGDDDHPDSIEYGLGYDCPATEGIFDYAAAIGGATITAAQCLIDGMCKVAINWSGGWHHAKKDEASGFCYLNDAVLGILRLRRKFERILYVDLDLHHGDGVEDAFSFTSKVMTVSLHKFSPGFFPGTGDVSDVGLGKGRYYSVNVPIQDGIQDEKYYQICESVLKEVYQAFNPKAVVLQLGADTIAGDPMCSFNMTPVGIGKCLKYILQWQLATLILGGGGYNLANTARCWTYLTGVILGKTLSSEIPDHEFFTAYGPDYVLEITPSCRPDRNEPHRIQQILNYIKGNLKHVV
How it was run: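 Recombinant human HDAC8 from insect cells was preincubated with compound for 15 min at rt, then given Ac-Arg-His-Lys-Lys(ε-acetyl)-AMC substrate for 30 min at rt. IC50 came from normalized percent inhibition with curve fitting.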

[5] = test system: RPMI-8226; experiment: WST anti-proliferative assay, multiple myeloma cell line RPMI-8226; type: cell-based; conditions: Homo sapiens, RPMI8226 cells, 72 hours, CCK-8
Description: as §1

| SMILES | pEC50 [1] | pIC50 [2] | pIC50 [4] | pIC50 [5] | p21 RP3 [3] | p21 RP10 [3] | p21 RP30 [3] |
| --- | --- | --- | --- | --- | --- | --- | --- |
| O=C(NO)c1ccc(NC2CCN(c3ccc(Cl)cc3)C2=O)cc1 (stereo not drawn) [Example 7, 4-[1-(4-Chloro-phenyl)-2-oxo-pyrrolidin-3-ylamino]-N-hydroxy-benzamide] | 5.85 | 5.25 | 6.26 | 5.06 | −0.08 | 0.12 | 0.16 |
| CC(C)(c1ccccc1)N1CCC(Nc2ccc(C(=O)NO)cc2)C1=O (stereo not drawn) [Example 47, N-Hydroxy-4-[1-(1-methyl-1-phenyl-ethyl)-2-oxo-pyrrolidin-3-ylamino]-benzamide] | 5.52 | 5.44 | 6.28 | 5.39 | 0.05 | 0.09 | 0.29 |
| CC1(Nc2ccc(C(=O)NO)cc2)CCN(c2ccc(Cl)cc2)C1=O (stereo not drawn) [Example 60, 4-[1-(4-Chloro-phenyl)-3-methyl-2-oxo-pyrrolidin-3-ylamino]-N-hydroxy-benzamide] | 6.28 | 5.40 | 6.04 | 5.09 | 0.80 | 0.16 | 0.07 |
| O=C(NO)c1ccc(NC2CC(=O)N(c3ccccc3Cl)C2)cc1 (stereo not drawn) [Example 71, 4-[1-(2-Chloro-phenyl)-5-oxo-pyrrolidin-3-ylamino]-N-hydroxy-benzamide] | 6.09 | 5.46 | 6.00 | 5.25 | 0.13 | 0.06 | 0.04 |
| CC1(Nc2ccc(C(=O)NO)cc2)C(=O)N(c2cccc(Cl)c2)c2ccncc21 (stereo not drawn) [Example 100, 4-[1-(3-Chloro-phenyl)-3-methyl-2-oxo-2,3-dihydro-1H-pyrrolo[3,2-c]pyridin-3-ylamino]-N-hydroxy-benzamide] | 6.15 |  | 6.14 |  | 0.45 | 0.13 | 0.31 |

The next lines start with results.

| pEC50 [1] | pIC50 [2] | pIC50 [4] | pIC50 [5] | SMILES | p21 RP3 [3] | p21 RP10 [3] | p21 RP30 [3] |
| --- | --- | --- | --- | --- | --- | --- | --- |
| 5.77 | 5.19 | 6.70 | 4.97 | O=C(NO)c1ccc(NC2CC(=O)N(c3ccc(F)cc3)C2)cc1 (stereo not drawn) [Example 70, 4-[1-(4-Fluoro-phenyl)-5-oxo-pyrrolidin-3-ylamino]-N-hydroxy-benzamide] | −0.07 | 0.00 | 0.02 |
| 5.83 | 5.31 | 5.98 | 5.19 | O=C(NO)c1ccc(NC2CC(=O)N(c3ccc(Cl)cc3)C2)cc1 (stereo not drawn) [Example 73, 4-[1-(4-Chloro-phenyl)-5-oxo-pyrrolidin-3-ylamino]-N-hydroxy-benzamide] | 0.12 | 0.04 | 0.04 |
| 6.72 |  | 5.77 |  | CC1(Nc2ccc(C(=O)NO)cc2)C(=O)N(c2cccc(Cl)c2)c2ccc(F)cc21 (stereo not drawn) [Example 98, 4-[1-(3-Chloro-phenyl)-5-fluoro-3-methyl-2-oxo-2,3-dihydro-1H-indol-3-ylamino]-N-hydroxy-benzamide] | 2.13 | 3.06 | 0.00 |
| 6.82 |  | 5.91 |  | CC1(Nc2ccc(C(=O)NO)cc2)C(=O)N(Cc2ccccc2Cl)c2ccc(F)cc21 (stereo not drawn) [Example 99, 4-[1-(2-Chloro-benzyl)-5-fluoro-3-methyl-2-oxo-2,3-dihydro-1H-indol-3-ylamino]-N-hydroxy-benzamide] | 0.95 | 0.62 | 0.00 |

— patent US8404738B2 (Hoffmann-La Roche Inc., priority 2011, dated 2013)
